The target in assay [1] is T1, NAMPT (Homo sapiens, UniProt P43490). Briefly: TR-FRET Binding Assay of NAMPT with PRPP. The following applies: 2 nM NAMPT, 2 nM probe, 200 µM PRPP and 2.5 mM ATP, equilibrated 16 hours. In a few lines: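 TR-FRET probe displacement with 2 nM NAMPT, 2 nM probe and 1 nM Tb-anti-His antibody in the presence of 200 µM PRPP and 2.5 mM ATP, 2% DMSO (all final). Equilibrated 16 hours before reading to permit possible enzymatic modification of compounds.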

A further assay deals with PC3 cells. Briefly: NAMPT Cell Proliferation Assay (Cell Titer Glo). The note with it: Homo sapiens, PC-3, 120 h, incubated 5 days, cell viability. It is filed as cell-based. In a few lines:
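PC3 cells (500/well, RPMI with 10% heat-inactivated FBS) were exposed to 10-fold compound dilutions from […] for 5 days at 37 °C, 5% CO2. Viability was read with Cell Titer Glo; IC50 from sigmoidal fit of percent inhibition.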
On the technique in general: Cellular ATP, detected with luciferase, serves as a proxy for viable cell number.

In assay [2] the target is T1, NAMPT. Put plainly: Time-Resolved Fluorescence Resonance Energy Transfer (TR-FRET) Binding Assay of NAMPT. The note with it: 6.8 nM NAMPT, 200 nM probe, equilibrated 3 hours, no substrates. In a few lines:
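Compound was mixed with enzyme, probe and antibody and equilibrated 3 h at room temperature. TR-FRET read at Ex 337 nm, Em 520/495 nm. Ratios were normalized to controls and fitted to a four-parameter logistic equation for IC50.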

Structures are written as SMILES.

T1 sequence (P43490 whole entry): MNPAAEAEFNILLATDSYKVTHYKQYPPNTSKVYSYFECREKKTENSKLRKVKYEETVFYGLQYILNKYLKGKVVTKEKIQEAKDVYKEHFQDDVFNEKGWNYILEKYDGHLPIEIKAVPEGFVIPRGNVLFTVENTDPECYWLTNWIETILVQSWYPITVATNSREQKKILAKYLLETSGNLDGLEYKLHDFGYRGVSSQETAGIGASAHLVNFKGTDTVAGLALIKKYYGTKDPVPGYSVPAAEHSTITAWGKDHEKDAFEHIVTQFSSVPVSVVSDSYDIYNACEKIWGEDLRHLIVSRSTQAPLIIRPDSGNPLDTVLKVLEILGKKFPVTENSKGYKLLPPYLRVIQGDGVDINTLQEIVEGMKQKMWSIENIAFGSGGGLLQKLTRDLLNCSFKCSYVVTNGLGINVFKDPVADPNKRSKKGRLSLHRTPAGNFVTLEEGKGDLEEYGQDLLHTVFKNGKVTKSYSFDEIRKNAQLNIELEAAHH

As usually defined, the IC50 is the concentration needed to halve the response being measured. Read a high IC50 as lower potency. For the compound `CCOCC(=O)N1CC[C@@H](Oc2ccc(NC(=O)N3CC(c4cccnc4)C3)cc2)C1` [Example 328, N-(4-{[(3R)-1-(ethoxyacetyl)pyrrolidin-3-yl]oxy}phenyl)-3-(pyridin-3-yl)azetidine-1-carboxamide], the IC50 on NAMPT [1] amounted to 0.344 nM; in the assay on PC3 cells, 52.7 nM; at NAMPT [2], 159 nM.
As for `CC(C)(C)CC(=O)N1CC[C@@H](Oc2ccc(NC(=O)N3CC(c4cccnc4)C3)cc2)C1` [Example 329, N-(4-{[(3R)-1-(3,3-dimethylbutanoyl)pyrrolidin-3-yl]oxy}phenyl)-3-(pyridin-3-yl)azetidine-1-carboxamide], the IC50 came to 0.276 nM at NAMPT [1], 14.5 nM in the assay on PC3 cells and 30.4 nM at NAMPT [2].
Taken in the same sequence, the figures for `CCC(C)(C)C(=O)N1CC[C@@H](Oc2ccc(NC(=O)N3CC(c4cccnc4)C3)cc2)C1` [Example 330, N-(4-{[(3R)-1-(2,2-dimethylbutanoyl)pyrrolidin-3-yl]oxy}phenyl)-3-(pyridin-3-yl)azetidine-1-carboxamide] were 0.364 nM, 12.3 nM and 21.9 nM.
Taken in the same sequence, the figures for `COCC(=O)N1CC[C@@H](Oc2ccc(NC(=O)N3CC(c4cccnc4)C3)cc2)C1` [Example 331, N-(4-{[(3R)-1-(methoxyacetyl)pyrrolidin-3-yl]oxy}phenyl)-3-(pyridin-3-yl)azetidine-1-carboxamide] were 0.351 nM, 42.4 nM and 81 nM.
The matching figures for `O=C(Nc1ccc(O[C@@H]2CCN(C(=O)C3CCCCC3)C2)cc1)N1CC(c2cccnc2)C1` [Example 332, N-(4-{[(3R)-1-(cyclohexylcarbonyl)pyrrolidin-3-yl]oxy}phenyl)-3-(pyridin-3-yl)azetidine-1-carboxamide]: 0.474 nM, 22.2 nM and 61.7 nM.
In the case of `CC(C)CC(=O)N1CC[C@@H](Oc2ccc(NC(=O)N3CC(c4cccnc4)C3)cc2)C1` [Example 333, N-(4-{[(3R)-1-(3-methylbutanoyl)pyrrolidin-3-yl]oxy}phenyl)-3-(pyridin-3-yl)azetidine-1-carboxamide], the IC50 at NAMPT [1] came to 0.416 nM; with PC3 cells it was 22.4 nM; at NAMPT [2], 56.1 nM.
The matching figures for `O=C(Nc1ccc(O[C@@H]2CCN(C(=O)C3CCCC3)C2)cc1)N1CC(c2cccnc2)C1` [Example 334, N-(4-{[(3R)-1-(cyclopentylcarbonyl)pyrrolidin-3-yl]oxy}phenyl)-3-(pyridin-3-yl)azetidine-1-carboxamide]: 0.449 nM, 32.4 nM and 94.9 nM.
Turning to `CC(C)C(C)C(=O)N1CC[C@@H](Oc2ccc(NC(=O)N3CC(c4cccnc4)C3)cc2)C1` (stereo partly drawn) [Example 335, N-(4-{[(3R)-1-(2,3-dimethylbutanoyl)pyrrolidin-3-yl]oxy}phenyl)-3-(pyridin-3-yl)azetidine-1-carboxamide], the figures for the IC50 at NAMPT [1], with PC3 cells and at NAMPT [2] were 0.495 nM, 15.8 nM and 45.7 nM, respectively.

The values above are taken from patent US9296723B2, “NAMPT inhibitors” (AbbVie Inc., priority 2012, dated 2016).
